Values quoted from earlier work, collected in patent US6340484B1, “Compositions containing neem seed extracts and saccharide” (E.I.D. Parry (India) Limited, priority 2000, dated 2002).
Read-outs that look alike come from different tables or passages of the source.

Conditions: 25 days at 29+/−1° C.

## C/C=C(\C)C(=O)O[C@H]1C[C@@H](OC(C)=O)[C@@]2(C(=O)OC)CO[C@H]3[C@@H](O)[C@@](C)([C@]45O[C@@]4(C)[C@@H]4C[C@H]5O[C@@H]5OC=C[C@@]54O)[C@H]4[C@]1(CO[C@]4(O)C(=O)OC)[C@@H]32 [azadirachtin A]
In acetone
  degradation of azadirachtin A: 50%
In carbon tetrachloride
  degradation of azadirachtin A: 75-80%
In chloroform
  degradation of azadirachtin A: 75-80%
In ethanol
  degradation of azadirachtin A: about 85%
In methanol
  degradation of azadirachtin A: 50%
In methylene chloride
  degradation of azadirachtin A: 75-80%
In water
  degradation of azadirachtin A: about 85%
